Target: T1, substance P (NK-1) receptor (Rattus norvegicus, UniProt P14600)
T1 construct: from tissue; host or cells: living Fischer F344 rats; read-out in trachea and main stem bronchi
Assay: Capsaicin-induced Evans blue extravasation in airways of rats inoculated endotracheally with Ad5CMVLacZ
Assay type: in vivo
Settings: Fischer F344 rats inoculated with Ad5CMVLacZ, 5 days after inoculation; pretreatment 4 mg/kg i.v., n=5; p>0.05 vs vector without pretreatment
Description: Pathogen-free Fischer F344 male rats (220-287 grams in weight, 12-14 weeks of age), under sodium pentobarotal anesthesia, received a localized endotracheal inoculation with 100 μL cf phosphate-buffered saline (PBS) containing 3×10^12 particles/mL of Ad5CMVLacZ, an adenovirus type 5 vector defective in the E1 and E3 regions of the viral genome and containing the LacZ transgene under the control of the CMV (cytomegalo virus) immediate early promoter. A control group of rats was inoculated with sterile PBS.
Five minutes after pretreatment, Evans blue dye (30 mg/kg i.v.) was injected into all the rats to measure the increase in vascular permeability associated with the neurogenic inflammation. Capsaicin (75 mg/kg i.v. over 2 min) was injected immediately after Evans blue to stimulate the sensory nerves in the airway mucosa. Five minutes after capsaicin, the rats were perfused through the heart with 100 mL of PBS. The trachea and main stem bronchi were removed and incubated in formamide (18 hours at 50° C.) to extract the extravasated tracer. The magnitude of the Evans blue extravasation was determined by spectrophotometric measurements of the optical density of formamide extracts.

T1 sequence (P14600 whole entry): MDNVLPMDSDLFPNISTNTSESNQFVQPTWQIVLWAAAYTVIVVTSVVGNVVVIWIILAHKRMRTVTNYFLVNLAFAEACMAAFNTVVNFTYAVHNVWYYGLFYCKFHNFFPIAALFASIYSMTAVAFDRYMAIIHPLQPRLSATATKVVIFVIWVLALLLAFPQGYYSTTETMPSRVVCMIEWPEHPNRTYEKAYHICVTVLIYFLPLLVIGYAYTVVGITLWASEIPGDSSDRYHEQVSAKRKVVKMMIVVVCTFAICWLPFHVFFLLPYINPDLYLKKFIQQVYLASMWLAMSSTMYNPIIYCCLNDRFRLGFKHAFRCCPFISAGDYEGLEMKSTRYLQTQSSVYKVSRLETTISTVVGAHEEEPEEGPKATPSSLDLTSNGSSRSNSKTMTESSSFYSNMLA

COc1ccccc1CN[C@@H]1CCCN[C@@H]1c1ccccc1 [compound B, (2R,3R)-2-phenyl-3-[(2-methoxyphenyl)methylamino]piperidine]
extravasation of Evans blue produced by capsaicin (trachea and main stem bronchi), mean ±SEM: 88.3 ± 5.8 ng/mg

From patent US6562335B1, “NK-1 receptor antagonists for prevention of neurogenic inflammation in gene therapy” (Pfizer, Inc., priority 1995, dated 2003)
